Like-named read-outs stand apart in the source and are kept apart here.
Key:
[1] = Plasma pharmacokinetics of doxorubicin and metabolites after i.v. bolus in wild-type and mdr1a(-/-) mice (HPLC); conditions: for half-life / concentration at 1 h / concentration at 4 h / concentration at 24 h / AUC(0-t) / clearance / Vd: female, FVB, mouse, iv; for half-life: in vivo, t1/2(), elimination half-life; for half-life / AUC(0-t) / clearance / Vd: 5 mg/kg; for concentration at 1 h / concentration at 4 h / concentration at 24 h / AUC(0-t) / clearance / Vd: plasma; for concentration at 1 h / concentration at 4 h / concentration at 24 h: 5 mg kg-1, Plasma level; for concentration at 1 h: 1 h after i.v. 5 mg kg-1 doxorubicin; for concentration at 4 h: 4 h after i.v. 5 mg kg-1 doxorubicin; for concentration at 24 h: 24 h after i.v. 5 mg kg-1 doxorubicin; for AUC(0-t): AUC(0-64), area under the plasma concentration-time curve up to 64 h; for clearance: Cl; for Vd: volume of distribution
Text: (§1) Blank human plasma was obtained from healthy donors. […] All biological specimens were stored at -20C until analysis. […] However, […]

[2] = Tissue distribution of doxorubicin and metabolites in wild-type and mdr1a(-/-) mice (HPLC); conditions: 24 h after drug administration
Text: as §1

[3] = mouse, in vivo
Text: as §1

[4] = system: mdr1a transfected cells; parameters: method as in Tang-Wai et al, 1995; conditions: ref Tang-Wai et al, 1995; cited from earlier work
[5] = cited from earlier work
[6] = Urinary and faecal excretion of doxorubicin and metabolites within 96 h (metabolic cages); conditions: for Excretion in faeces / Excretion in urine: within 96 h after i.v. 5 mg kg-1 doxorubicin
[7] = over 48 h, ref Van Asperen et al, 1996, cited from earlier work
[8] = mdr1a(-/-) mice, i.v. bolus 5 mg kg-1
[9] = wild-type mice, i.v. bolus 5 mg kg-1

Molecule COc1cccc2c1C(=O)c1c(O)c3c(c(O)c1C2=O)C[C@@](O)(C(=O)CO)C[C@@H]3O[C@H]1C[C@H](N)[C@H](O)[C@H](C)O1 [doxorubicin] has a half-life [1, 8] of 24.8 h, a half-life [1, 9] of 15.7 h and a concentration at 1 h ([1]; mdr1a(-/-) mice) of 110 nM. It also gave a concentration at 1 h ([1]; wild-type mice) of 130 nM, a concentration at 4 h ([1]; mdr1a(-/-) mice) of 66.2 nM and a concentration at 4 h ([1]; wild-type mice) of 70.9 nM. For the same molecule, the concentration at 24 h ([1]; mdr1a(-/-) mice) was 28.2 nM, the concentration at 24 h ([1]; wild-type mice) was 16.3 nM and the AUC(0-t) [1, 8] was 2.27 µM·h. It also gave an AUC(0-t) [1, 9] of 1.82 µM·h, a clearance [1, 8] of 60 mL/min/kg and a clearance [1, 9] of 75 mL/min/kg. The Vd [1, 8] was 128 L/kg, the Vd [1, 9] was 101 L/kg and the “AUC, mdr1a(-/-) in comparison with wild-type mice” value ([1]; i.v. bolus 5 mg kg-1) was 1.2 fold. For the same molecule, the “Vd, mdr1a(-/-) in comparison with wild-type mice” value ([1]; i.v. bolus 5 mg kg-1) was 1.3 fold, the “terminal half-life, mdr1a(-/-) in comparison with wild-type mice” value ([1]; i.v. bolus 5 mg kg-1) was 1.6 fold and the “absolute concentration in hearts of mdr1a(-/-) mice compared with wild-type” value [2] was “more than twofold higher”. For the same molecule, the “tolerability of dose level” value [3] was “well tolerated”, the “resistance of mdr1a transfected cells in comparison with non-P-glycoprotein-expressing parental cells” value [4] was 35 fold and the “doxorubicin concentration in heart on co-administration of reversal agent” value ([5]; ref Bellamy et al, 1995) was “up to twofold higher”. For the same molecule, the “dose excreted unchanged in faeces” value ([6]; within 96 h after administration, wild-type mice) was 5%, the Excretion in faeces ([6]; mdr1a(-/-) mice) was 4.1 percentage of the administered dose and the Excretion in urine ([6]; mdr1a(-/-) mice) was 15.4 percentage of the administered dose. The Excretion in faeces ([6]; wild-type mice) was 5.2 percentage of the administered dose and the Excretion in urine ([6]; wild-type mice) was 10.9 percentage of the administered dose.
In the case of CC[C@]1(O)C[C@@H]2CN(CCc3c([nH]c4ccccc34)[C@@](C(=O)OC)(c3cc4c(cc3OC)N(C)[C@H]3[C@@](O)(C(=O)OC)[C@H](OC(C)=O)[C@]5(CC)C=CCN6CC[C@]43[C@@H]65)C2)C1 [vinblastine], the “resistance of mdr1a transfected cells in comparison with non-P-glycoprotein-expressing parental cells” value [4] is given as 53 fold, the “i.v. administered dose excreted unchanged in the faeces” value ([7]; mdr1a(-/-) mice) is given as 10% and the “i.v. administered dose excreted unchanged in the faeces” value ([7]; wild-type mice) is given as 24%.
For cyclosporin A, the “mortality on co-administration with doxorubicin” value ([5]; non-tumour-bearing mice, ref Colombo et al, 1994, Bellamy et al, 1995, Gonzalez et al) is given as “high mortality”.

From publication PMC2362153 (British Journal of Cancer, 1999)
